Source: patent US10821160B2, “L-asparaginase variants and fusion proteins with reduced L-glutaminase activity and enhanced stability” (priority 2016, dated 2020)
Values joined by “and” are separate entries in the source; they are usually repeats but may differ in a detail not shown here. Equal entries are not always repeated.

Columns and labels:
[1] = target: Erwinia chrysanthemi L-asparaginase (ErA) variant A31I-E63Q-S254Q (ErA-TM2), SEQ ID NO:6 (Dickeya chrysanthemi, UniProt P06608, A52I/E84Q/S275Q); assay type: biochemical; parameters: lacking the first 21-amino acid residue signal peptide; His6-SUMO (yeast Smt3p) (N, cleaved yes); made in house; host or cells: E. coli BL21(DE3) C41
Method: (§1) L-asparaginase activity was determined using a continuous spectroscopic enzyme-coupled assay as previously described (Schalk, et al. (2014) J. Biol. Chem. 289:33175-33186). In brief, the assay measures the production of L-aspartate through the 1:1 oxidation of reduced NADH. The conversion of NADH to NAD^+ was measured spectrophotometrically as a decrease in absorbance at 340 nm at 37° C. All measurements were taken in triplicate. Rates were fit to the Michaelis-Menten equation using SIGMAPLOT software (Systat Software Inc).
(§2) Using colorimetric enzyme-coupled assays, L-asparaginase and L-glutaminase activity of the enzymes was determined.

[2] = target: T1, Erwinia chrysanthemi L-asparaginase (ErA) variant S254P (ErA-S254P) (Dickeya chrysanthemi, UniProt P06608, S275P); assay type: biochemical; conditions: 37° C
T1 construct: lacking the first 21-amino acid residue signal peptide; His6-SUMO (yeast Smt3p) (N, cleaved yes); made in house; host or cells: E. coli BL21(DE3) C41
Method: as §1
(§3) Using colorimetric enzyme-coupled assays, L-asparaginase and L-glutaminase activity of the enzymes was determined. […] Seventeen of the 18 mutants had reduced L-glutaminase activity (Table 7). However, for most of the mutants, this decrease was concomitant with a decline in the L-asparaginase activity. Using the criteria of (i) ≥60% retained L-asparaginase activity (relative to Erw-WT) and (ii) ≤5% L-glutaminase versus and L-asparaginase activity, mutants ErA-E63Q, ErA-S254P, ErA-A31I+E63Q and ErA-S254N+E63Q were selected for further study.

[3] = target: T2, Erwinia chrysanthemi L-asparaginase (ErA) variant A31I-E63Q (ErA-DM2), SEQ ID NO:4 (Dickeya chrysanthemi, UniProt P06608, A52I/E84Q); assay type: biochemical; conditions: 37° C
T2 construct: lacking the first 21-amino acid residue signal peptide; His6-SUMO (yeast Smt3p) (N, cleaved yes); made in house; host or cells: E. coli BL21(DE3) C41
Method: as §1, §3

[4] = target: T3, Erwinia chrysanthemi L-asparaginase (ErA) variant E63Q-S254Q (ErA-DM3), SEQ ID NO:5 (Dickeya chrysanthemi, UniProt P06608, E84Q/S275Q); assay type: biochemical; conditions: 37° C
T3 construct: lacking the first 21-amino acid residue signal peptide; His6-SUMO (yeast Smt3p) (N, cleaved yes); made in house; host or cells: E. coli BL21(DE3) C41
Method: as §1
(§4) The parameters that define the asparagine-depleting power of such enzyme drugs are of significance. […] Enzymologists often combine these two parameters into a single value (kcat/Km) that is thought to represent the efficiency of the enzyme.
as §2

[5] = target: T4, Erwinia chrysanthemi L-asparaginase (ErA) variant E63Q-S254N (ErA-DM1), SEQ ID NO:3 (Dickeya chrysanthemi, UniProt P06608, E84Q/S275N); assay type: biochemical
T4 construct: lacking the first 21-amino acid residue signal peptide; His6-SUMO (yeast Smt3p) (N, cleaved yes); made in house; host or cells: E. coli BL21(DE3) C41

[6] = target: T5, 10K PEGylated Erwinia chrysanthemi L-asparaginase (ErA) variant A31I-E63Q-S254Q-D84C (10K PEGylated-ErA-TM2-D84C) (Dickeya chrysanthemi, UniProt P06608, A52I/D105C/E84Q/S275Q); assay: L-asparaginase activity, comparison with ErA-TM2; assay type: biochemical
T5 construct: lacking the first 21-amino acid residue signal peptide; made in house
Method: as §1
(§5) The resulting […] protein was expressed, purified and PEGylated with mPEG-10K.

[7] = target: T6, Erwinia chrysanthemi L-asparaginase (ErA) variant A31I-E63Q-S254Q-D84C (ErA-TM2-D84C) (Dickeya chrysanthemi, UniProt P06608, A52I/D105C/E84Q/S275Q); assay: L-asparaginase activity, comparison with ErA-TM2; assay type: biochemical
T6 construct: lacking the first 21-amino acid residue signal peptide; made in house
Method: as §1, §5

[8] = test system: Erwinia chrysanthemi L-asparaginase (ErA) variants ErA-E63Q, ErA-DM2 (A31I-E63Q) and ErA-DM1 (E63Q-S254N); assay: L-asparaginase activity of the mutants as a group vs ErA-WT; assay type: biochemical; conditions: Asn
Method: as §1, §3

[9] = target: T7, Erwinia chrysanthemi L-asparaginase, wild type (ErA-WT), SEQ ID NO:1 (Dickeya chrysanthemi, UniProt P06608); assay: L-asparaginase activity, continuous spectroscopic enzyme-coupled assay; assay type: biochemical; conditions: 37° C
T7 construct: lacking the first 21-amino acid residue signal peptide; His6-SUMO (yeast Smt3p) (N, cleaved yes); made in house; host or cells: E. coli BL21(DE3) C41
Method: In brief, the assay measures the production of L-aspartate through the 1:1 oxidation of reduced NADH. The conversion of NADH to NAD^+ was measured spectrophotometrically as a decrease in absorbance at 340 nm at 37° C. All measurements were taken in triplicate. Rates were fit to the Michaelis-Menten equation using SIGMAPLOT software (Systat Software Inc).
as §4, §2

[10] = target: T8, Erwinia chrysanthemi L-asparaginase (ErA) variant A31I-E63Q-S254N (ErA-TM1), SEQ ID NO:7 (Dickeya chrysanthemi, UniProt P06608, A52I/E84Q/S275N); assay type: biochemical; conditions: 37° C
T8 construct: lacking the first 21-amino acid residue signal peptide; His6-SUMO (yeast Smt3p) (N, cleaved yes); made in house; host or cells: E. coli BL21(DE3) C41

[11] = target: T9, Escherichia coli L-asparaginase, wild type (EcA-WT), SEQ ID NO:9 (Escherichia coli, UniProt P00805); assay: L-asparaginase activity, continuous spectroscopic enzyme-coupled assay; assay type: biochemical; conditions: 37° C
T9 sequence (P00805 with tags, fused parts or gaps): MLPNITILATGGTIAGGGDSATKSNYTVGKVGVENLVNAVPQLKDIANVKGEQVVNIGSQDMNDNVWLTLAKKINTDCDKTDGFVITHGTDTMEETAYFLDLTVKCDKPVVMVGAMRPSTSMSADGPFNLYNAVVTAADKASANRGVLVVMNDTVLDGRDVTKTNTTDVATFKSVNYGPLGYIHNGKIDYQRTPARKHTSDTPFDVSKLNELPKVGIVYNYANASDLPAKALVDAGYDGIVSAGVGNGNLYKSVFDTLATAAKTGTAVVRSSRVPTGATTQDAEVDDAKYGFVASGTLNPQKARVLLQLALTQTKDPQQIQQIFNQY
Method: as §1
The parameters that define the asparagine-depleting power of such enzyme drugs are of significance. […] Enzymologists often combine these two parameters into a single value (kcat/Km) that is thought to represent the efficiency of the enzyme. […] Therefore, the ErA enzyme was selected for developing a variant with low L-glutaminase activity.

[12] = target: Erwinia chrysanthemi L-asparaginase (ErA) variant E63Q (ErA-E63Q), SEQ ID NO:2 (Dickeya chrysanthemi, UniProt P06608, E84Q); conditions: 37° C
Method: as §1, §4, §2

SMILES: NC(=O)C[C@H](N)C(=O)O [Asn, L-asparagine]
- kobs @20 μM ([1]; 20 μM Asn, 37° C): 40.8 s⁻¹
- kobs @50 μM ([1]; 50 μM Asn, 37° C): 89.1 s⁻¹
- kobs at 2 mM Asn ([1]; 2 mM Asn): 178.8 s⁻¹
- Km ([1]; Asn, 37° C): 95 ± 3.5 µM
- kcat ([1]; Asn, 37° C): 261.2 ± 2.8 s⁻¹
- kobs @20 μM ([2]; 20 μM Asn): 4.5 s⁻¹
- kobs @50 μM ([2]; 50 μM Asn): 10.5 s⁻¹
- Km ([2]; Asn): 1150 ± 25.5 µM
- kcat ([2]; Asn): 250.0 ± 2.8 s⁻¹
- kobs @20 μM ([3]; 20 μM Asn): 38.8 s⁻¹
- kobs @50 μM ([3]; 50 μM Asn): 69.7 s⁻¹
- Km ([3]; Asn): 36.9 ± 2.2 µM
- kcat ([3]; Asn): 123.0 ± 1.8 s⁻¹
- kobs @20 μM ([4]; 20 μM Asn): 14.2 s⁻¹
- kobs @50 μM ([4]; 50 μM Asn): 36.3 s⁻¹ and 30.8 s⁻¹
- Km ([4]; Asn): 179 ± 5.6 µM
- kcat ([4]; Asn): 147.3 ± 1.0 s⁻¹
- kobs @20 μM ([5]; 20 μM Asn, 37° C): 18.9 s⁻¹
- kobs @50 μM ([5]; 50 μM Asn, 37° C): 36.3 s⁻¹
- kcat ([5]; Asn, 37° C): 169.8 ± 1.5 s⁻¹
- increase in Asn Km ([5]; Asn, relative to ErA-WT): 4 fold
- kobs at 2 mM Asn [6]: 163.4 s⁻¹
- kobs at 2 mM Asn [7]: 172.8 s⁻¹
- near wild-type kcat (range, of ErA-WT) [8]: 60-90%
- kobs @20 μM ([9]; 20 μM Asn): 50.7 s⁻¹
- kobs @50 μM ([9]; 50 μM Asn): 105.3 s⁻¹
- kobs @20 μM ([10]; 20 μM Asn): 16.4 s⁻¹
- kobs @50 μM ([10]; 50 μM Asn): 29.2 s⁻¹
- kcat ([10]; Asn): 109.7 ± 0.8 s⁻¹
- kobs @20 μM ([11]; 20 μM Asn): 28.3 s⁻¹
- kobs @50 μM ([11]; 50 μM Asn): 41.3 s⁻¹
- kobs @20 μM ([12]; 20 μM Asn): 46.3 s⁻¹
- kobs @50 μM ([12]; 50 μM Asn): 92.2 s⁻¹
- Km ([12]; Asn): 48.1 µM and 50.7 µM
